Source: patent publication US6737383B1, “Herbicidal oxadiazolidines” (priority 1999, dated 2004)

Assays:
bedstraw = assay: Test B pre/postemergence bedstraw; assay type: in vivo, Galium aparine
How it was run: (§1)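 Test chemicals in a non-phytotoxic solvent mixture with surfactant were sprayed preemergence onto planted seeds and postemergence onto plants 2 to 18 cm tall (1- to 4-leaf stage). After twelve to sixteen days in a greenhouse, injury was visually rated against untreated controls from 0 (no effect) to 10 (complete control).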

blackgrass = assay: Test B pre/postemergence blackgrass; assay type: in vivo, Alopecurus myosuroides
How it was run: as §1

surinam grass = assay: Test B pre/postemergence surinam grass; assay type: in vivo, Brachiaria decumbens
How it was run: as §1

cocklebur = assay: Test B pre/postemergence cocklebur; assay type: in vivo, Xanthium strumarium
How it was run: as §1

crabgrass = assay: Test B pre/postemergence crabgrass; assay type: in vivo, Digitaria sanguinalis
How it was run: as §1

giant foxtail = assay: Test B pre/postemergence giant foxtail; assay type: in vivo, Setaria faberii
How it was run: as §1

morningglory = assay: Test B pre/postemergence morningglory; assay type: in vivo, Ipomoea hederacea
How it was run: as §1

pigweed = assay: Test B pre/postemergence pigweed; assay type: in vivo, Amaranthus retroflexus
How it was run: as §1

sugar beet = assay: Test B pre/postemergence sugar beet; assay type: in vivo, Beta vulgaris
How it was run: as §1

velvetleaf = assay: Test B pre/postemergence velvetleaf; assay type: in vivo, Abutilon theophrasti
How it was run: as §1

wheat = assay: Test B pre/postemergence wheat; assay type: in vivo, Triticum aestivum
How it was run: as §1

wild oat = assay: Test B pre/postemergence wild oat; assay type: in vivo, Avena fatua
How it was run: as §1

purple nutsedge = assay: Test B pre/postemergence purple nutsedge; assay type: in vivo, Cyperus rotundus
How it was run: as §1

rice = assay: Test B flood test rice; assay type: in vivo, Oryza sativa
How it was run: (§2)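 Each value is a visual injury score relative to controls, with 10 meaning complete control and 0 no effect. Evaluation took place twelve to sixteen days after the 2-leaf-stage plants were treated and kept in the greenhouse.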

duck salad = assay: Test B flood test duck salad; assay type: in vivo, Heteranthera limosa
How it was run: as §2

bamyardgrass = assay: Test B flood test barnyardgrass; assay type: in vivo, Echinochloa crus-galli
How it was run: as §2

[1] = Preemergence, Rate 62 g/ha, scale of 0 to 10 where 0 is no effect and 10 is complete control
[2] = Preemergence, Rate 250 g/ha, scale of 0 to 10 where 0 is no effect and 10 is complete control
[3] = Preemergence, Rate 500 g/ha, scale of 0 to 10 where 0 is no effect and 10 is complete control
[4] = Rate 62 g/ha, Postemergence, scale of 0 to 10 where 0 is no effect and 10 is complete control
[5] = Rate 125 g/ha, Postemergence, scale of 0 to 10 where 0 is no effect and 10 is complete control
[6] = Rate 125 g/ha, Preemergence, scale of 0 to 10 where 0 is no effect and 10 is complete control
[7] = Rate 250 g/ha, Postemergence, scale of 0 to 10 where 0 is no effect and 10 is complete control
[8] = Rate 500 g/ha, Postemergence, scale 0 to 10, 0 no effect, 10 complete control
[9] = Rate 62 g/ha, headed Pre-emergence (flood test species), scale 0 to 10 (0 no effect, 10 complete control)
[10] = Rate 125 g/ha, Pre-emergence, flood test species, scale 0 to 10 where 0 is no effect and 10 is complete control
[11] = Rate 250 g/ha, Pre-emergence, flood-test species, scale 0 to 10, 0 is no effect, 10 is complete control
[12] = Rate 500 g/ha, Pre-emergence, flood test species, scale 0 to 10 (0 no effect, 10 complete control)

CC(C)N(C(=O)n1oc(=O)n(Cc2ccccn2)c1=O)c1ccc(F)cc1 [Compound 267]
8: Plant response rating, Blackgrass (blackgrass; [3]) | Blackgrass plant response rating (blackgrass; [8]) | Plant response rating, Crabgrass (crabgrass; [3]) | Giant foxtail plant response rating (giant foxtail; [1]) | Giant foxtail plant response rating (giant foxtail; [6]) | Morningglory plant response rating (morningglory; [8])
7: Bedstraw plant response rating (bedstraw; [8]) | Crabgrass plant response rating (crabgrass; [8]) | Giant foxtail plant response rating (giant foxtail; [8]) | Plant response rating, Redroot pigweed (pigweed; [3])
6: Redroot pigweed plant response rating (pigweed; [2]) | Redroot pigweed plant response rating (pigweed; [8])
9: Plant response rating, B. signalgrass (surinam grass; [3]) | Giant foxtail plant response rating (giant foxtail; [2]) | Plant response rating, Giant foxtail (giant foxtail; [3])
5: Plant response rating, Blackgrass (blackgrass; [7]) | Plant response rating, Sugarbeets (sugar beet; [3])
4: Plant response rating, Bedstraw (bedstraw; [7]) | Sugarbeets plant response rating (sugar beet; [8]) | Wheat plant response rating (wheat; [8]) | Wild oats plant response rating (wild oat; [8]) | Nutsedge plant response rating (purple nutsedge; [8])
3: B. signalgrass plant response rating (surinam grass; [8]) | Cocklebur plant response rating (cocklebur; [8]) | Plant response rating, Crabgrass (crabgrass; [7]) | Plant response rating, Morningglory (morningglory; [7]) | Redroot pigweed plant response rating (pigweed; [6]) | Plant response rating, Velvetleaf (velvetleaf; [3]) | Velvetleaf plant response rating (velvetleaf; [8]) | Plant response rating, Wheat (wheat; [7])
1: Plant response rating, Cocklebur (cocklebur; [7]) | Crabgrass plant response rating (crabgrass; [2]) | Morningglory plant response rating (morningglory; [5]) | Plant response rating, Velvetleaf (velvetleaf; [7])
2: Plant response rating, Bedstraw (bedstraw; [3]) | Blackgrass plant response rating (blackgrass; [2]) | Blackgrass plant response rating (blackgrass; [6]) | Crabgrass plant response rating (crabgrass; [1]) | Plant response rating, Giant foxtail (giant foxtail; [7]) | Plant response rating, Sugarbeets (sugar beet; [7]) | Plant response rating, Wild oats (wild oat; [3]) | Plant response rating, Wild oats (wild oat; [7])
0: Bedstraw plant response rating (bedstraw; [1]) | Bedstraw plant response rating (bedstraw; [2]) | Bedstraw plant response rating (bedstraw; [4]) | Bedstraw plant response rating (bedstraw; [5]) | Bedstraw plant response rating (bedstraw; [6]) | Blackgrass plant response rating (blackgrass; [1]) | Blackgrass plant response rating (blackgrass; [4]) | Blackgrass plant response rating (blackgrass; [5]) | B. signalgrass plant response rating (surinam grass; [1]) | B. signalgrass plant response rating (surinam grass; [2]) | B. signalgrass plant response rating (surinam grass; [4]) | B. signalgrass plant response rating (surinam grass; [5]) | B. signalgrass plant response rating (surinam grass; [6]) | Plant response rating, B. signalgrass (surinam grass; [7]) | Cocklebur plant response rating (cocklebur; [1]) | Cocklebur plant response rating (cocklebur; [2]) | Plant response rating, Cocklebur (cocklebur; [3]) | Cocklebur plant response rating (cocklebur; [4]) | Cocklebur plant response rating (cocklebur; [5]) | Cocklebur plant response rating (cocklebur; [6]) | Crabgrass plant response rating (crabgrass; [5]) | Crabgrass plant response rating (crabgrass; [6]) | Giant foxtail plant response rating (giant foxtail; [5]) | Morningglory plant response rating (morningglory; [1]) | Morningglory plant response rating (morningglory; [2]) | Plant response rating, Morningglory (morningglory; [3]) | Morningglory plant response rating (morningglory; [6]) | Redroot pigweed plant response rating (pigweed; [1]) | Redroot pigweed plant response rating (pigweed; [5]) | Plant response rating, Redroot pigweed (pigweed; [7]) | Sugarbeets plant response rating (sugar beet; [1]) | Sugarbeets plant response rating (sugar beet; [2]) | Sugarbeets plant response rating (sugar beet; [5]) | Sugarbeets plant response rating (sugar beet; [6]) | Velvetleaf plant response rating (velvetleaf; [1]) | Velvetleaf plant response rating (velvetleaf; [2]) | Velvetleaf plant response rating (velvetleaf; [5]) | Velvetleaf plant response rating (velvetleaf; [6]) | Wheat plant response rating (wheat; [1]) | Wheat plant response rating (wheat; [2]) | Plant response rating, Wheat (wheat; [3]) | Wheat plant response rating (wheat; [5]) | Wheat plant response rating (wheat; [6]) | Wild oats plant response rating (wild oat; [1]) | Wild oats plant response rating (wild oat; [2]) | Wild oats plant response rating (wild oat; [5]) | Wild oats plant response rating (wild oat; [6]) | Nutsedge plant response rating (purple nutsedge; [1]) | Nutsedge plant response rating (purple nutsedge; [2]) | Plant response rating, Nutsedge (purple nutsedge; [3]) | Nutsedge plant response rating (purple nutsedge; [5]) | Nutsedge plant response rating (purple nutsedge; [6]) | Plant response rating, Nutsedge (purple nutsedge; [7]) | Rice plant response rating (rice; [9]) | Rice plant response rating (rice; [10]) | Rice plant response rating (rice; [11]) | Rice plant response rating (rice; [12]) | Ducksalad plant response rating (duck salad; [9]) | Ducksalad plant response rating (duck salad; [10]) | Ducksalad plant response rating (duck salad; [11]) | Ducksalad plant response rating (duck salad; [12]) | Barnyardgrass plant response rating (bamyardgrass; [9]) | Barnyardgrass plant response rating (bamyardgrass; [10]) | Barnyardgrass plant response rating (bamyardgrass; [11]) | Barnyardgrass plant response rating (bamyardgrass; [12])
